{
  "source": "ChEMBL document CHEMBL1201862",
  "about": "“PubChem BioAssay data set” (2004)",
  "key": {"[1]": {"assay": "M. tuberculosis H37Rv growth inhibitors, H37Rv strain (AID 1626)", "assay_type": "functional"}, "[2]": {"target": "T1, Calpain-2 catalytic subunit (Sus scrofa, UniProt P43367)", "T1 sequence (P43367 whole entry)": "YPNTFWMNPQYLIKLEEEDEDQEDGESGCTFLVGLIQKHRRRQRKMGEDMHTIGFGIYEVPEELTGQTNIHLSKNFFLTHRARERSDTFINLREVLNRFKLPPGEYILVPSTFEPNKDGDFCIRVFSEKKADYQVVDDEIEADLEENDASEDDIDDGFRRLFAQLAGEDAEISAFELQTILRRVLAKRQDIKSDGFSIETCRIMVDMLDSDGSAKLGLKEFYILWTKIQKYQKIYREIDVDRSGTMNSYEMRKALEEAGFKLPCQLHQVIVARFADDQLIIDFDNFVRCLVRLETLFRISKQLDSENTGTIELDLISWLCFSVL", "assay": "pig calpain II inhibitor potency, dose response, biochemical, fluorogenic peptide substrate (AID 1420)", "assay_type": "functional"}, "[3]": {"target": "Cytochrome P450 3A4 (Homo sapiens, UniProt P08684)", "sequence (P08684 whole entry)": "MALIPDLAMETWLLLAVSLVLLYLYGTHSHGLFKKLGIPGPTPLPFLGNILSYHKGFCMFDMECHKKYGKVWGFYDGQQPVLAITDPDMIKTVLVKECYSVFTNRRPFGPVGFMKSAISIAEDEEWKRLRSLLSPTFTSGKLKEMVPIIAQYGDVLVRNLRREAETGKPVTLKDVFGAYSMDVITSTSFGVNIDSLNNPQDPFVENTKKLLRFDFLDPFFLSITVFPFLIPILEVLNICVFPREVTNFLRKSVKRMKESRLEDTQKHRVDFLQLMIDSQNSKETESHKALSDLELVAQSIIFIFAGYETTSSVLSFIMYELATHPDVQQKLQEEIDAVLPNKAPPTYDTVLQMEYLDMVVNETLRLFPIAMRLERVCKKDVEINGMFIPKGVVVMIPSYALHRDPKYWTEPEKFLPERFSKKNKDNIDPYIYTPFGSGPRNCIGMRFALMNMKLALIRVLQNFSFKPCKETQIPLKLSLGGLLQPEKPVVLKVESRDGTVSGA", "settings": "Potency"}, "[4]": {"assay": "Luminescence Cell-Based Dose Confirmation HTS to Identify Activators of 5'UTR Stem-Loop Driven Alpha-Synuclein mRNA Translation in H4 Neuroglioblastoma Cells. [Related pubchem assays: 1829 (Project Summary), 1814 (Primary HTS)]", "assay_type": "functional"}, "[5]": {"test_system": "H4", "assay": "Luminescence Cell-Based Dose Response HTS to Identify Activators of 5'UTR Stem-Loop Driven Prion Protein mRNA Translation in H4 Neuroglioblastoma Cells. [Related pubchem assays: 1829 (Project Summary), 1814 (Primary HTS)]", "assay_type": "functional", "settings": "Homo sapiens"}, "[6]": {"assay": "Luminescence Cell-Based Dose Response to Identify Activators of 5'UTR Stem-Loop Driven Prion Protein mRNA Translation in H4-C Neuroglioblastoma Cells. [Related pubchem assays: 1829 (Project Summary), 1814 (Primary HTS)]", "assay_type": "functional"}, "[7]": {"assay": "Luminescence Cell-Based Dose Confirmation to Identify Activators of 5'UTR Stem-Loop Driven Alpha-Synuclein mRNA Translation in H4 Neuroglioblastoma Cells. [Related pubchem assays: 1829 (Project Summary), 1814 (Primary HTS)]", "assay_type": "functional"}, "[8]": {"assay": "Luminescence Cell-Based Dose Response HTS to Identify Activators of Luciferase Translation or Activity in H4 […] Cells. [Related pubchem assays: 1829 (Project Summary), 1814 (Primary HTS)]", "assay_type": "functional"}, "[9]": {"assay": "Luminescence Cell-Based Dose Response to Identify Activators of Luciferase Translation or Activity in H4-C Neuroglioblastoma Cells. [Related pubchem assays: 1829 (Project Summary), 1814 (Primary HTS)]", "assay_type": "functional"}, "[10]": {"target": "T2, Voltage-gated N-type calcium channel alpha-1B subunit/Amyloid beta A4 precursor protein-binding family A member 1 (Homo sapiens, UniProt Q00975+Q02410)", "T2 sequence (Q00975 whole entry)": "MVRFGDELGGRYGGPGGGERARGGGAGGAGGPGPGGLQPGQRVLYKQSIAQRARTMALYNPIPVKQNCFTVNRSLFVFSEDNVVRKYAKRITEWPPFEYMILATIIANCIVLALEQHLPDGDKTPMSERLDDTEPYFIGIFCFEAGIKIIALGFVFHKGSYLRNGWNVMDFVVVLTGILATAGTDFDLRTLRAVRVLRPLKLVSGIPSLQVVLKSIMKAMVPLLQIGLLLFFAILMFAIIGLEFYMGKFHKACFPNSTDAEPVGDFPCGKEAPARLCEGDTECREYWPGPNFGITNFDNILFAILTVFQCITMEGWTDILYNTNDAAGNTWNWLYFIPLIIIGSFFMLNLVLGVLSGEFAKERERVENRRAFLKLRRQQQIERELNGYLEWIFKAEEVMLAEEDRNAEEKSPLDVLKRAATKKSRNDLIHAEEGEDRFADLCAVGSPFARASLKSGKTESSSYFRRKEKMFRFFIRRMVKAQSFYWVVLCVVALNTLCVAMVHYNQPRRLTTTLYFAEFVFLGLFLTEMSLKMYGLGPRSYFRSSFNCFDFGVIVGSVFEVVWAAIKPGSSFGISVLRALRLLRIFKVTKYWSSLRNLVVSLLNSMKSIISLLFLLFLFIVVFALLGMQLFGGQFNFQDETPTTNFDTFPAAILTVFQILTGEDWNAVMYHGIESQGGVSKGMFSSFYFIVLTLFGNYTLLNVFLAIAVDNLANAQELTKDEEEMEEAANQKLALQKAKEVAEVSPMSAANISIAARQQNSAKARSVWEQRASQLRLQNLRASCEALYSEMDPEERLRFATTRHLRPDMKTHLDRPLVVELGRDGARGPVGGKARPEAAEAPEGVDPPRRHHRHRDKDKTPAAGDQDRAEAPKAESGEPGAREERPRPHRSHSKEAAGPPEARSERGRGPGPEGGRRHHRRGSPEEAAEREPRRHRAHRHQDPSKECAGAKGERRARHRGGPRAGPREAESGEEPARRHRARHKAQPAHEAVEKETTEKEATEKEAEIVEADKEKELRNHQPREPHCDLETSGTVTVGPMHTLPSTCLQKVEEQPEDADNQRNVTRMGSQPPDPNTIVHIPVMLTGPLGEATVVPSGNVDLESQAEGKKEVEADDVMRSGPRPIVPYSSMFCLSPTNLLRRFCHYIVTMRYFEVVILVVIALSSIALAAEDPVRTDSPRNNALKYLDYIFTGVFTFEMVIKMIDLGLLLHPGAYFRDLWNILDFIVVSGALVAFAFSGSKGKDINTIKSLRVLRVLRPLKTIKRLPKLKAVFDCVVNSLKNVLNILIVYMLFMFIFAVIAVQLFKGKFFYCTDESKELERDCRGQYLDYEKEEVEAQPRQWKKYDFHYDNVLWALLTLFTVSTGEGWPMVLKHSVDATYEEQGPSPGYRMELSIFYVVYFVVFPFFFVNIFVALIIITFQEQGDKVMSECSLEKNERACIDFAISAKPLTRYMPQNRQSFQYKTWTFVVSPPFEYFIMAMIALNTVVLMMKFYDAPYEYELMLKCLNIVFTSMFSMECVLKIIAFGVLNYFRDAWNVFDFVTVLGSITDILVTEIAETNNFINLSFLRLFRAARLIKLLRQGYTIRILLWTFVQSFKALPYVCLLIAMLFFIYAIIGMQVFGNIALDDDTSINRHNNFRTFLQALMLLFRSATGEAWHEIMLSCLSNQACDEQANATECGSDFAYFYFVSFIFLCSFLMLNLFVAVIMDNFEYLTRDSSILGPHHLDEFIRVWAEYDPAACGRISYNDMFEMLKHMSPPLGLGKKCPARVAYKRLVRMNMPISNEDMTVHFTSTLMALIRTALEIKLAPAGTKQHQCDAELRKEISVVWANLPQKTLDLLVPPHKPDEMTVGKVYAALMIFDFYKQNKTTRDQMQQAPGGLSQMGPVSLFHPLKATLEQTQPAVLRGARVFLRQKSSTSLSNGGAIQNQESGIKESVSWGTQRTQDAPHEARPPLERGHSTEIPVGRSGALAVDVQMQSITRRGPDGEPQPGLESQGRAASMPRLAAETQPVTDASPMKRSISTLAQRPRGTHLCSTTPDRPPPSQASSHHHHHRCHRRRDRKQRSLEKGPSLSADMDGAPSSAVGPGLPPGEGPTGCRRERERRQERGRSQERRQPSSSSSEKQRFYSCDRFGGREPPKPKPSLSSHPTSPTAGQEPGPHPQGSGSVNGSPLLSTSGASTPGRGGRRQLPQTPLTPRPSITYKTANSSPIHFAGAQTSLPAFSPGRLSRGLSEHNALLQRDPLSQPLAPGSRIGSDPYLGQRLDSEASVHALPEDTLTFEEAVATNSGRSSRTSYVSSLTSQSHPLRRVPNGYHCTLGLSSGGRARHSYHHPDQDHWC", "T2 sequence (Q02410 whole entry)": "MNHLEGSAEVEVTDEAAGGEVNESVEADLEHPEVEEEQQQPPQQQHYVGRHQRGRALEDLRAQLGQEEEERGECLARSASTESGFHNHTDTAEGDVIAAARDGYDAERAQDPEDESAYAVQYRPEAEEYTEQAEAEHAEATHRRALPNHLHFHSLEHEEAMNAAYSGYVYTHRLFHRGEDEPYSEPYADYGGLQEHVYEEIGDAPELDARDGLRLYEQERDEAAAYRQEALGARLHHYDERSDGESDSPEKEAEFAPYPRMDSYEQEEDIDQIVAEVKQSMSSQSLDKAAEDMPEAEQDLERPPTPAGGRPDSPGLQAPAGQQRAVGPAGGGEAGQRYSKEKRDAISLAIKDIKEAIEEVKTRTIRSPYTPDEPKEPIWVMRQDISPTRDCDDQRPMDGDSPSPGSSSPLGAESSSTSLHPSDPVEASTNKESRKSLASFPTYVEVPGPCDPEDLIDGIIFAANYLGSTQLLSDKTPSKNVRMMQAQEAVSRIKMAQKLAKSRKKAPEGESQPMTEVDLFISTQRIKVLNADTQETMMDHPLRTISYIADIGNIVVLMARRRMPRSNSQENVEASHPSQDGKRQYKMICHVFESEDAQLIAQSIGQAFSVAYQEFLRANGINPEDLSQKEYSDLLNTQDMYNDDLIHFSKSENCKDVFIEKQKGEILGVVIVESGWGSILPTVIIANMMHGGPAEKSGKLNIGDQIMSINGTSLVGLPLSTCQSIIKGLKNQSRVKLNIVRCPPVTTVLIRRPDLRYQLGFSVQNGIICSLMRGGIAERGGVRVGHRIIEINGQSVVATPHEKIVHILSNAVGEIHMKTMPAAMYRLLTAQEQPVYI", "assay_type": "protein assay"}, "[11]": {"target": "T2, Voltage-gated N-type calcium channel alpha-1B subunit/Amyloid beta A4 precursor protein-binding family A member 1", "assay_type": "protein assay", "remark": "listed apart in the source"}, "[12]": {"target": "Voltage-dependent T-type calcium channel subunit alpha-1H (Homo sapiens, UniProt O95180)", "assay_type": "functional"}, "[13]": {"test_system": "Streptococcus", "assay": "Group A Streptococcus viability loss, dose response, counter-screen for streptokinase expression inhibitor project, luminescence, BacTiterGlo (AID 1915);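 note: potency for reduction of bacterial viability or growth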", "assay_type": "functional, organism-based"}, "[14]": {"test_system": "Streptococcus sp. 'group A'", "assay": "growth inhibition of control SK(-) GAS strain, dose response, counter-screen for streptokinase expression inhibitor project, luminescence, kanamycin, BacTiterGlo, confirmation (AID 1900)", "assay_type": "functional, organism-based"}, "[15]": {"assay": "microbe, parasite or virus in culture", "assay_type": "functional", "settings": "Mycobacterium tuberculosis"}, "[16]": {"target": "T3, Streptokinase A (Streptococcus pyogenes serotype M1, UniProt P10520)", "T3 sequence (P10520 whole entry)": "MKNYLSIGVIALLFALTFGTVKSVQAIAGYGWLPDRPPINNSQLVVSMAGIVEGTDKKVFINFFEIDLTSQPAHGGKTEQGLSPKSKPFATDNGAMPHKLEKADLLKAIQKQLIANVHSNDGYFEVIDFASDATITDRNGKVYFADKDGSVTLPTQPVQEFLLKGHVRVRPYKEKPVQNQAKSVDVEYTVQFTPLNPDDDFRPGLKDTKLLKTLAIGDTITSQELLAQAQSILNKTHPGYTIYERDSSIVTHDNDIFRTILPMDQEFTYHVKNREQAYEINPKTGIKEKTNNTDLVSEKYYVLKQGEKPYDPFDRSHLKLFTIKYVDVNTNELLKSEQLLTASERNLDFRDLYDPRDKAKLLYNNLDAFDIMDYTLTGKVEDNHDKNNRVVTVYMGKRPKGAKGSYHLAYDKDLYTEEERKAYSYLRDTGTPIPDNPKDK", "assay": "S. pyogenes streptokinase expression inhibitors, potency, dose response, plasminogen activation absorbance, OD405 (AID 1914)", "assay_type": "functional, Streptococcus pyogenes M1 GAS"}, "[17]": {"assay": "cells"}, "[18]": {"assay": "inhibitors of intracellular T. cruzi replication, confirmation, NIH3T3 host cells, beta-gal luminescence (AID 2044);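 note: luminescent beta-galactosidase reporter signal from transgenic T. cruzi replicating inside host cells; inhibitors lower the luminescence signal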", "assay_type": "functional, cell-based"}, "[19]": {"assay": "cytotoxicity toward NIH3T3 fibroblasts, dose response, counter-screen, cell-based, ATP luminescence, mouse fibroblasts (AID 2010);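 note: cells exposed to compound for about 90 hours before reading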", "assay_type": "functional"}, "[20]": {"assay": "P. falciparum 3D7-ScDHODH growth inhibitors, dose response, SYBR Green, dry powder samples (AID 1159570);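 note: parasite growth measured after 72 hours of compound exposure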", "assay_type": "functional, cell-based"}, "[21]": {"assay": "P. falciparum ATP4 D1247Y mutant growth inhibitors, dose response, NITD609-resistant line, SYBR Green, dry powder (AID 1159571);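 note: parasites synchronized at ring stage by sorbitol before testing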", "assay_type": "functional, cell-based"}, "[22]": {"assay": "P. falciparum Dd2 growth inhibitors, dose response, SYBR Green, cherry-picked samples (AID 1159567)", "assay_type": "functional, cell-based"}, "[23]": {"assay": "HepG2 cell cytotoxicity, dose response, cytotoxicity control, plate reader, dry powder samples (AID 1159569);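 note: inhibitor potency with signal falling toward the positive control level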", "assay_type": "functional, cell-based"}, "[24]": {"assay": "P. falciparum Dd2 growth inhibitors, dose response, SYBR Green, dry powder samples (AID 1159566)", "assay_type": "functional, cell-based"}, "[25]": {"assay": "HepG2 cell cytotoxicity, dose response, cytotoxicity control, cherry-picked samples (AID 1159577)", "assay_type": "functional, cell-based"}, "[26]": {"target": "E3 ubiquitin-protein ligase Mdm2 (Homo sapiens, UniProt Q00987)", "assay": "enhancers of MDM2-luciferase reporter signal, concentration-effect titration, project on inhibitors of MDM2 ubiquitin ligase, cellular assay, luminescent readout, 384-well plate format (AID 1394);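 note: MDM2 E3 inhibitors raise luminescence so EC50 is for signal enhancement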", "assay_type": "functional"}, "[27]": {"target": "Large T antigen (Simian virus 40, UniProt P03070)", "assay_type": "functional, Betapolyomavirus macacae"}, "[28]": {"target": "Heat shock protein HSP 90-alpha (Homo sapiens, UniProt P07900)", "assay_type": "functional, organism-based"}, "[29]": {"target": "DNA dC->dU-editing enzyme APOBEC-3G (Homo sapiens, UniProt Q9HC16)", "sequence (Q9HC16 whole entry)": "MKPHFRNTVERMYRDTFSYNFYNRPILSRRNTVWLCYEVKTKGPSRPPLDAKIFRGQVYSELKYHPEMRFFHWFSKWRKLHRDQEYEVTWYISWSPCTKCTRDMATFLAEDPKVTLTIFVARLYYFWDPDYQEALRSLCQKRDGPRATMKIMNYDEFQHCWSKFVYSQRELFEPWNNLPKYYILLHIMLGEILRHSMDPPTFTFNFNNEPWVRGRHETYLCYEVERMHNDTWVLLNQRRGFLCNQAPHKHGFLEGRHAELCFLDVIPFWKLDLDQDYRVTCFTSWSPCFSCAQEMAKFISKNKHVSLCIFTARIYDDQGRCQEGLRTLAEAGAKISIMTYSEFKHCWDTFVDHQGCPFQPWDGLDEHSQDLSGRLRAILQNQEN", "assay": "Dose Response confirmation of small molecule APOBEC3G DNA Deaminase Inhibitors via a fluorescence-based single-stranded DNA deaminase assay. [Related pubchem assays (depositor defined):AID493012, AID493028]", "assay_type": "functional"}, "[30]": {"target": "Beta-galactosidase (Escherichia coli, UniProt Q8VNN2)", "sequence (Q8VNN2 whole entry)": "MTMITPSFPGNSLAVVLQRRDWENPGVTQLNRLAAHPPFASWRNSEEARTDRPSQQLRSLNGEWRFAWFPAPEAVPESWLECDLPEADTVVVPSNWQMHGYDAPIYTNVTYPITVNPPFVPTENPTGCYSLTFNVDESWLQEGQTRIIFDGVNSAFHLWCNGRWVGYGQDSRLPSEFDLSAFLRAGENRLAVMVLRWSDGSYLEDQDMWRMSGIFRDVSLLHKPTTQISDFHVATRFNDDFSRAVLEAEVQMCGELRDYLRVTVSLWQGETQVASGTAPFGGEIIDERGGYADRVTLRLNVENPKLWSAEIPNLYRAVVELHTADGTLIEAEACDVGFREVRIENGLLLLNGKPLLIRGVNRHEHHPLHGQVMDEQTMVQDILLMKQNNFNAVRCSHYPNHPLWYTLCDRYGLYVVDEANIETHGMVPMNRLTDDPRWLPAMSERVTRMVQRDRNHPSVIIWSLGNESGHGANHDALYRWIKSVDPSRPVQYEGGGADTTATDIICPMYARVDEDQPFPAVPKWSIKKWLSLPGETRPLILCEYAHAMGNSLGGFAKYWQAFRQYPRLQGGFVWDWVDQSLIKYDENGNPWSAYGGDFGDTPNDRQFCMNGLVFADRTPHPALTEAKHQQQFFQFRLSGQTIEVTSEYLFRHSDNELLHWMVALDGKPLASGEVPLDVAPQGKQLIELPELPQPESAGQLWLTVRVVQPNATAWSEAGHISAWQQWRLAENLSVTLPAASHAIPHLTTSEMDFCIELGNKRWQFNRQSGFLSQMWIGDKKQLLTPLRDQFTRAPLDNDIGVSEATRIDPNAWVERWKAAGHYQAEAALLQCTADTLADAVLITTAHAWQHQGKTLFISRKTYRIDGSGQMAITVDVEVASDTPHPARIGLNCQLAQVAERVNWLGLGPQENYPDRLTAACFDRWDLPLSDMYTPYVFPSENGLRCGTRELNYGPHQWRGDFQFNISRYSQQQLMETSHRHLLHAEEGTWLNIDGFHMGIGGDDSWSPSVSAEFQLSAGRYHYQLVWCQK", "assay": "beta-galactosidase enzyme inhibitors and activators, dose response, artefact control for CCR6 antagonist project, biochemical, E. coli enzyme, set 3 (AID 504712)", "assay_type": "functional"}},
  "note": "Active and inactive are the calls of the source.",
  "data": [
    {"smiles": "O=C(Nc1cccnc1)c1cc2cc(Br)ccc2oc1=O", "values": [
      {"measurement": "IC50", "setting": "[1]", "value": "> 100 µM (active)"},
      {"measurement": "IC50", "setting": "[2]", "value": "17.6 µM (not active)"}
    ]},
    {"smiles": "COC(=O)CC1C(C)(C)C2(O)OC34CC2C(=O)[C@@]1(C)C3CC[C@]1(C)C4=CC(=O)OC1c1ccoc1", "note": "(stereo partly drawn)", "values": [
      {"measurement": "AC50", "setting": "[3]", "value": "3.16 µM (inconclusive)"}
    ]},
    {"smiles": "O=C(c1cc(COc2ccc(F)cc2Cl)on1)N1CCSCC1", "values": [
      {"measurement": "EC50", "setting": "[4]", "value": "0.787 µM (active)"},
      {"measurement": "EC50", "setting": "[5]", "value": "0.1 µM (active)"},
      {"measurement": "EC50", "setting": "[6]", "value": "> 12 µM (not active)"},
      {"measurement": "EC50", "setting": "[7]", "value": "0.63 µM (active)"},
      {"measurement": "EC50", "setting": "[8]", "value": "4 µM (active)"},
      {"measurement": "EC50", "setting": "[9]", "value": "> 12 µM (not active)"}
    ]},
    {"smiles": "Oc1ccc2c(c1)OCC1c3cc4c(cc3OC21)OCO4", "note": "(stereo not drawn)", "values": [
      {"measurement": "AC50", "setting": "[3]", "value": "39.8 µM (inconclusive)"}
    ]},
    {"smiles": "CN(C)c1nc(-c2ccccc2)[n+](C)s1", "values": [
      {"measurement": "IC50", "setting": "[10]", "value": "3.76 µM (active)"},
      {"measurement": "IC50", "setting": "[11]", "value": "> 50 µM (inactive)"}
    ]},
    {"smiles": "O=C(OCc1ccccc1)c1cccc(-c2nnn(Cc3ccccc3)n2)c1", "values": [
      {"measurement": "EC50", "setting": "[12]", "value": "9.03 µM (active)"},
      {"measurement": "EC50", "setting": "[13]", "value": "> 150 µM (not active)"},
      {"measurement": "EC50", "setting": "[14]", "value": "> 150 µM (not active)"},
      {"measurement": "CC50", "setting": "[15]", "value": "> 40 µM (active)"},
      {"measurement": "EC50", "setting": "[16]", "value": "26 µM (inconclusive)"}
    ]},
    {"smiles": "CC1CCc2c(sc(NC(=O)Cn3cnc([N+](=O)[O-])n3)c2C(N)=O)C1", "note": "(stereo not drawn)", "values": [
      {"measurement": "EC50", "setting": "[17]", "value": "0.102 µM (active)"},
      {"measurement": "EC50", "setting": "[18]", "value": "< 0.1 µM (active)"},
      {"measurement": "EC50", "setting": "[19]", "value": "> 30 µM (not active)"}
    ]},
    {"smiles": "COc1ccc(N2Cc3ccccc3C2)cc1Cl", "values": [
      {"measurement": "IC50", "setting": "[1]", "value": "> 100 µM (active)"}
    ]},
    {"smiles": "CCCc1cn(CC[C@H]2CC[C@@H](NS(=O)(=O)c3ccc(-c4ccccc4)cc3)[C@@H](CO)O2)nn1", "values": [
      {"measurement": "AC50", "setting": "[20]", "value": "0.963 µM (active)"},
      {"measurement": "AC50", "setting": "[21]", "value": "0.833 µM (active)"},
      {"measurement": "AC50", "setting": "[22]", "value": "0.689 µM (active)"},
      {"measurement": "AC50", "setting": "[23]", "value": "47.4 µM (active)"},
      {"measurement": "AC50", "setting": "[24]", "value": "0.914 µM (active)"},
      {"measurement": "AC50", "setting": "[25]", "value": "> 39 µM (inactive)"}
    ]},
    {"smiles": "Cc1cc(C)nc(S/C=C/C(=O)c2ccc(F)cc2)n1", "values": [
      {"measurement": "EC50", "setting": "[26]", "value": "0.81 µM (active)"}
    ]},
    {"smiles": "C(=C\\c1ccccc1)/CN1CCN(Cc2ccc3c(c2)OCCO3)CC1", "values": [
      {"measurement": "EC50", "setting": "[17]", "value": "0.053 µM (active)"},
      {"measurement": "EC50", "setting": "[18]", "value": "< 0.1 µM (active)"},
      {"measurement": "EC50", "setting": "[19]", "value": "> 60 µM (not active)"}
    ]},
    {"smiles": "O=C(CCSc1ccccc1)Nc1nnc(-c2ccccc2)o1", "values": [
      {"measurement": "IC50", "setting": "[1]", "value": "> 100 µM (active)"}
    ]},
    {"smiles": "COc1cc(N2C(=O)C=CC2=O)c(OC)cc1Cl", "values": [
      {"measurement": "IC50", "setting": "[10]", "value": "11.6 µM (active)"},
      {"measurement": "IC50", "setting": "[27]", "value": "54.6 µM (active)"},
      {"measurement": "AC50", "setting": "[28]", "value": "2.72 µM (active)"},
      {"measurement": "IC50", "setting": "[29]", "value": "44 µM (active)"},
      {"measurement": "IC50", "setting": "[11]", "value": "1.97 µM (active)"},
      {"measurement": "IC50", "setting": "[30]", "value": "> 66.6 µM (inactive)"}
    ]}
  ]
}
